# Results as given in patent US20250099420A1, “SMALL MOLECULE MODULATORS OF GPR139 COMPLEX” (University of Florida Research Foundation, Incorporated, priority 2022, published 2025).
# Where two headings read alike, the source gives them in different places.
# Assays:
# [1] = target: T1, GPR139 (Homo sapiens, UniProt Q6DWJ6); test: GPR139 Agonist titration / agonist counterscreen assay (calcium detection, HEK-GPR139 cells); assay type: cell-based; parameters: expressed in transfected cells; host or cells: HEK Aequorin cells, Maxcyte transient transfection; conditions: GPR139 Agonist Activity; for Averaged Max % Response (±St. Dev.): activity relative to known control; for EC50: read-out: EC50
# T1 sequence (Q6DWJ6 1-353): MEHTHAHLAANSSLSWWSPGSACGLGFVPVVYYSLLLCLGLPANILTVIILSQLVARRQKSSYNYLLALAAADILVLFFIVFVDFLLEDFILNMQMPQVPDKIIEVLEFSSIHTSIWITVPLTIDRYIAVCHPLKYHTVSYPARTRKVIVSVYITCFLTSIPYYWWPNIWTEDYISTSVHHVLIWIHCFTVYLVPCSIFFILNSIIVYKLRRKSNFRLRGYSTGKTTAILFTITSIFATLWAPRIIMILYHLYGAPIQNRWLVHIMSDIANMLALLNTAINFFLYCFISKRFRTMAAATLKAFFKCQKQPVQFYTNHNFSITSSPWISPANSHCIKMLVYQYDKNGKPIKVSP
# Description: GPR activity was assessed using a calcium detection assay. […] Negative control samples were treated with DMSO. […] Intracellular calcium was measured using Calcium 5.
# [2] = test system: parental HEK cells; test: HEK parental Agonist Counterscreen Assay (non-transfected cells); assay type: cell-based; conditions: for Averaged Max % Response (±St. Dev.): activity relative to known control
# Description: The high control for the agonist counterscreen was Forskolin not acetylcholine.
# [3] = values printed in E-notation without unit
# [4] = Homo sapiens, HEK293, HEK Agonist Activity, parental non-transfected HEK cells
# [5] = HEK Agonist Activity section of Table 4 (parental HEK counterscreen)
# [6] = Homo sapiens, HEK293, HEK Agonist Activity section of Table 4 (parental HEK counterscreen)
SMILES,Averaged Max % Response (±St. Dev.) [1] [%],Lipophilic Efficiency (logD) ([1]; based on logD),Lipophilic Efficiency (logP) ([1]; based on logP),Hill Slope ([1]; fitted dose-response curve),Efficiency Ligand ([1]; ligand efficiency),"EC50 [1, 3] [nM]",Lipophilic Efficiency (logD) ([2]; HEK Agonist Activity),Lipophilic Efficiency (logP) ([2]; HEK Agonist Activity),Averaged Max % Response (±St. Dev.) ([2]; HEK Agonist Activity) [%],"EC50 [2, 4] [nM]",Efficiency Ligand [1],Hill Slope [1],Lipophilic Efficiency (logD) [1],Lipophilic Efficiency (logP) [1],EC50 ([1]; HEK-GPR139 cells) [nM],Lipophilic Efficiency (logD) ([2]; HEK Agonist Activity section),Lipophilic Efficiency (logP) ([2]; HEK Agonist Activity section),"EC50 [2, 5] [nM]",Averaged Max % Response (±St. Dev.) ([2]; HEK Agonist Activity section) [%],"EC50 [2, 6] [nM]"
O=C(CN1C(=O)NC2(CCc3ccccc3C2)C1=O)Nc1ccccc1Oc1ccccc1 (centres unmarked) [SR-01000039980],134.67 ± 13.58,4.01,4.01,0.55,0.34,10.4,0.84,0.84,39.53 ± 8.33,> 15300,,,,,,,,,,
COc1ccc(CCN2CC3=C(C2=O)C(c2ccc(F)c(F)c2)NC(=O)N3)cc1 (centres unmarked) [SR-01000335002],86.79 ± 17.90,,,,,,,,,,0.31,0.68,4.62,4.62,422,3.09,3.09,> 14100,20.28 ± 3.20,
Cc1cc(Cl)ccc1OC(C)C(=O)NNC(=O)c1ccccc1 (centres unmarked) [SR-01000013313],93.40 ± 11.14,4.45,4.44,0.63,0.48,13.3,1.41,1.40,2.95 ± 4.76,> 14400,,,,,,,,,,
NC1=NC(=O)/C(=C\c2ccc(Cl)cc2Cl)S1 [SR-01000310833],80.08 ± 5.83,,,,,,,,,,0.56,0.71,3.32,3.32,407,1.78,1.78,> 14100,13.95 ± 0.93,
Cc1cc(NC(=O)Cn2ncc3c2-c2ccccc2OC3)no1 [SR-01000098884],75.62 ± 16.43,,,,,,,,,,0.35,0.72,4.12,4.12,1800,3.22,3.22,> 14100,0.57 ± 13.32,
O=C(CCc1ccccc1)Nc1nnc(Cc2cccs2)o1 [SR-01000920660],83.52 ± 6.71,,,,,,,,,,0.41,1.17,3.39,3.39,387,1.83,1.83,,−18.29 ± 7.41,> 14100
O=C(COc1ccccc1F)NNC(=O)CSc1ccc2ccccc2c1 [SR-01000068761],123.40 ± 6.48,5.00,4.99,0.55,0.42,9.7,1.82,1.81,4.98 ± 10.48,> 14700,,,,,,,,,,
CCCN1C(=O)CCc2cc(NC(=O)NCCc3ccc(OC)cc3)ccc21 [SR-01000923206],74.00 ± 9.00,,,,,,,,,,0.31,1.67,2.98,2.98,604,1.61,1.61,> 14100,−32.47 ± 4.02,
Cc1cccc(COc2coc(COc3nccn3C)cc2=O)c1 [SR-01000916033],104.22 ± 8.56,5.04,5.04,0.34,0.42,61.9,,,,,,,,,,2.68,2.68,,25.93 ± 6.51,> 14100
O=C(c1ccccc1)C1CCCCC1S(=O)(=O)O (centres unmarked) [SR-01000197834],95.96 ± 5.70,6.98,4.61,1.09,0.54,131,,,,,,,,,,4.95,2.58,,18.65 ± 10.85,> 14100
Cc1cccnc1CNC(=O)CCC1(Cc2cccc3ccccc23)CCC(=O)N1 (centres unmarked) [SR-01000207758],124.78 ± 10.06,3.82,3.82,0.77,0.31,178,,,,,,,,,,1.92,1.92,> 14100,2.94 ± 8.83,
O=C(Cc1ccccc1)CC1C=CC2=C1c1ccccc1CC2 (centres unmarked) [SR-01000134941],109.36 ± 34.06,4.30,4.30,0.39,0.39,,,,,,,,,,,2.40,2.40,,10.65 ± 6.79,> 14100
O=C(CN1CCN(C/C=C/c2ccccc2)CC1)NCCCc1ccccc1 [SR-01000062290],128.31 ± 15.25,3.75,3.51,0.74,0.36,58.8,,,,,,,,,,1.34,1.10,,11.38 ± 4.42,> 14900
Cc1ccc(NC(=O)NCCCc2ccccc2)cc1 [SR-01000299370],68.10 ± 8.73,,,,,,,,,,0.38,0.74,1.36,1.36,3700,0.78,0.78,,−5.05 ± 8.64,> 14100
O=C(NCCCn1ccnc1)c1cc2nc3c(c(C(F)(F)F)n2n1)CCc1ccccc1-3 [SR-01000313440],84.05 ± 13.31,,,,,,,,,,0.28,1.29,3.07,3.01,332,1.45,1.38,,0.31 ± 4.15,> 14100
